Data set [1] concerns the target T1, Bile salt export pump (Rattus norvegicus, UniProt O70127).
T1 sequence (O70127 whole entry): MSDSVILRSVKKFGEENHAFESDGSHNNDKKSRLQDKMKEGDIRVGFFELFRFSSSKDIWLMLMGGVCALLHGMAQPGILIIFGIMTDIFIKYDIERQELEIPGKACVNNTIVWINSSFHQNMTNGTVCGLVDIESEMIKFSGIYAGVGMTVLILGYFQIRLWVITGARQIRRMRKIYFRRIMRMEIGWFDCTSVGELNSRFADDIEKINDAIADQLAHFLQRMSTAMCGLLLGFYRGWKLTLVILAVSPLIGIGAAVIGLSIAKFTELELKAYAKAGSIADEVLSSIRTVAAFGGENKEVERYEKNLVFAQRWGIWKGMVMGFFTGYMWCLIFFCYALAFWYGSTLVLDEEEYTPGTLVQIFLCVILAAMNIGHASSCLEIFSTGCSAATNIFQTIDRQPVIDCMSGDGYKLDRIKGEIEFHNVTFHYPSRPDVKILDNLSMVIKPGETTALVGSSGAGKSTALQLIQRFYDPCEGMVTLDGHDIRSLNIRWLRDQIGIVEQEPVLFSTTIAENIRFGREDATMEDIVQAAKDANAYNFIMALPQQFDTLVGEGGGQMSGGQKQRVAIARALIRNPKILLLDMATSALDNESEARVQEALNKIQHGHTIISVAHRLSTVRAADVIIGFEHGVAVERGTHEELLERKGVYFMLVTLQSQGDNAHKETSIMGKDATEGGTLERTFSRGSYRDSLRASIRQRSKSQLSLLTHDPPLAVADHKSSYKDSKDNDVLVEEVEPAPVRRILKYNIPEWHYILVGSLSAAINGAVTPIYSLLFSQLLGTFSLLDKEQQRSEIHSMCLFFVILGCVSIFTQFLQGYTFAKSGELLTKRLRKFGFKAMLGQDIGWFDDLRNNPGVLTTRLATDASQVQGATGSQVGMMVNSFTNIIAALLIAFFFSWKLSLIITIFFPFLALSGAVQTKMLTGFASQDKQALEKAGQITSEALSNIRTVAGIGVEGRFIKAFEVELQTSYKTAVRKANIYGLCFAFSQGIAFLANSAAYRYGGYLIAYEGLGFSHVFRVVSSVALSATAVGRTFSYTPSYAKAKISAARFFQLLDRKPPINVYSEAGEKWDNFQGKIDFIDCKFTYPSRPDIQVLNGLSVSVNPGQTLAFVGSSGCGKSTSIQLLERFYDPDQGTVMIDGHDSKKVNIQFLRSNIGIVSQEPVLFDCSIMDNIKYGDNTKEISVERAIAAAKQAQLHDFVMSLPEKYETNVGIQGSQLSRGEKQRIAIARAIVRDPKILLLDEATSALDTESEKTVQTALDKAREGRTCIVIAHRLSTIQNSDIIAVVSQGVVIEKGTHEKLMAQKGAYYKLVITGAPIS
Put plainly: (§1) TP_TRANSPORTER: uptake in membrane vesicles from Bsep-expressing Sf9 cells. It counts as functional.

Data set [2] addresses T1, Bile salt export pump. The data set is described as follows: TP_TRANSPORTER: inhibition of Taurocholate uptake in membrane vesicles from Bsep-expressing Sf9 cells. In kind it is functional.
Data set [3] deals with ATP-binding cassette sub-family C member 2 (Rattus norvegicus, UniProt Q63120). The data set is described as follows: TP_TRANSPORTER: uptake in membrane vesicles from Mrp2-expressing Sf9 cells. It counts as functional, cell membranes, Membrane vesicle.
Chain of ATP-binding cassette sub-family C member 2 (Q63120 whole entry): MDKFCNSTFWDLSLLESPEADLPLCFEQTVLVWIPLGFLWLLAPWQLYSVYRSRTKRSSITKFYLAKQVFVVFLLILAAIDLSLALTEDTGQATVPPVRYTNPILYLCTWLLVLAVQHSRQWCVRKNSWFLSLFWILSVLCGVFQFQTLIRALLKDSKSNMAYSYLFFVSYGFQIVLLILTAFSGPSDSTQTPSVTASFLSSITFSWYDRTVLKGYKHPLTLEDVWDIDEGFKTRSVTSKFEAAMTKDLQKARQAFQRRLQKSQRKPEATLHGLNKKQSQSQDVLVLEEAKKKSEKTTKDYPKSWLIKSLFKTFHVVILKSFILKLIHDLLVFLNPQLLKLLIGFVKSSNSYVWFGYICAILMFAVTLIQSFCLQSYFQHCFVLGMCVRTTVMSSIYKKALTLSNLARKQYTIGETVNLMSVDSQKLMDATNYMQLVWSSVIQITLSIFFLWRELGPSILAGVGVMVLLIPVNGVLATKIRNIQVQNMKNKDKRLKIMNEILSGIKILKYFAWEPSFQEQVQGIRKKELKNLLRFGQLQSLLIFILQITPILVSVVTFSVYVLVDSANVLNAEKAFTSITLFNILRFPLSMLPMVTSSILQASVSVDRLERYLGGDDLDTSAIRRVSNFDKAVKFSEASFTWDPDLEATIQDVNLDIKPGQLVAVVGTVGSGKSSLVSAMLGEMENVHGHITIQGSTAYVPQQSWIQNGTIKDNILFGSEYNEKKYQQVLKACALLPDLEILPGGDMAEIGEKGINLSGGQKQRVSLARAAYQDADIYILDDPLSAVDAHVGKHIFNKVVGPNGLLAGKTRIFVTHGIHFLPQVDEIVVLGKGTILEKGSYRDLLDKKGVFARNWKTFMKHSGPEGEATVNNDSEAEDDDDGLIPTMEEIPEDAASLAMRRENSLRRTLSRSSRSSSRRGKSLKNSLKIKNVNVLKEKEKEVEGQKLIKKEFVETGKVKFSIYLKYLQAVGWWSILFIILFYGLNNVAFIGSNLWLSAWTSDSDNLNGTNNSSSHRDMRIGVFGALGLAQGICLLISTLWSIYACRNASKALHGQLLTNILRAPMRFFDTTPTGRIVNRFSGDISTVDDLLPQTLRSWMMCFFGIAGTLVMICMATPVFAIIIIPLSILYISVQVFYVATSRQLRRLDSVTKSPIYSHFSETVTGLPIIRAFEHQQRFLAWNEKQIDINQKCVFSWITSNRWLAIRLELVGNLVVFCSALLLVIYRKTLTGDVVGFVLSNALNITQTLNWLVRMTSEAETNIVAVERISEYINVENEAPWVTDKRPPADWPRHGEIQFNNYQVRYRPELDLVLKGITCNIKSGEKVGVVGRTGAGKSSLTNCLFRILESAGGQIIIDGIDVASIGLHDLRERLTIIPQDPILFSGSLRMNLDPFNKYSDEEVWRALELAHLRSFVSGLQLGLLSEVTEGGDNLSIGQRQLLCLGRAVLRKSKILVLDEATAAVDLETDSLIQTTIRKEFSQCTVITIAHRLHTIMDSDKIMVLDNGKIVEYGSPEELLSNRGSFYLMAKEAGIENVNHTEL
Substrate in data set [4]: C[C@H](CCC(=O)NCCS(=O)(=O)O)[C@H]1CC[C@H]2[C@@H]3[C@@H](O)C[C@@H]4C[C@H](O)CC[C@]4(C)[C@H]3CC[C@]12C
The description is as §1. In kind it is functional.

Substrate in data set [5]: C[C@H](CCC(=O)NCCS(=O)(=O)O)[C@H]1CC[C@H]2[C@@H]3[C@H](O)C[C@@H]4C[C@H](O)CC[C@]4(C)[C@H]3CC[C@]12C
Described as §1. It counts as functional.

The source of these data is ChEMBL document CHEMBL2074069, “Drug- and estrogen-induced cholestasis through inhibition of the hepatocellular bile salt export pump (Bsep) of rat liver” (Gastroenterology, 2000).

In general, Ki refers to a dissociation constant, usually derived from enzyme kinetics or from competition with a known ligand. One may read the Km as the concentration of substrate that gives half-maximal velocity.

As for `C[C@H](CCC(=O)NCC(=O)O)[C@H]1CC[C@H]2[C@@H]3[C@H](O)C[C@@H]4C[C@H](O)CC[C@]4(C)[C@H]3CC[C@]12C` [GLYCOCHENODEOXYCHOLATE], the Activity result at Bile salt export pump [1] is “substrate [+]”. Regarding `CO[C@H]1/C=C/O[C@@]2(C)Oc3c(C)c(O)c4c(O)c(c(/C=N/N5CCN(C)CC5)c(O)c4c3C2=O)NC(=O)/C(C)=C\C=C\[C@H](C)[C@H](O)[C@@H](C)[C@@H](O)[C@@H](C)[C@H](OC(C)=O)[C@@H]1C` [RIFAMPIN], the Ki on Bile salt export pump [2] amounted to 11.9 µM.

Regarding `C[C@H](CCC(=O)NCCS(=O)(=O)O)C1CC[C@H]2[C@@H]3CC[C@@H]4C[C@H](OS(=O)(=O)O)CC[C@]4(C)[C@H]3CC[C@]12C` (some centres undefined), in data set [3], the Activity result is “substrate [+]”. `C[C@H](CCC(=O)NCC(=O)O)[C@H]1CC[C@H]2[C@@H]3[C@H](O)C[C@@H]4C[C@H](O)CC[C@]4(C)[C@H]3C[C@H](O)[C@]12C` [GLYCOCHOLIC ACID]: the Activity result at Bile salt export pump [1] was “substrate [+]”. Regarding `COc1ccc(Cl)cc1C(=O)NCCc1ccc(S(=O)(=O)NC(=O)NC2CCCCC2)cc1` [GLYBURIDE], the inhibitory constant (Ki) at Bile salt export pump [2] came out at 6.1 µM. Still for that read-out and setting: under `CO[C@H]1/C=C/O[C@@]2(C)Oc3c(C)c(O)c4c(O)c(cc(O)c4c3C2=O)NC(=O)/C(C)=C\C=C\[C@H](C)[C@H](O)[C@@H](C)[C@@H](O)[C@@H](C)[C@H](OC(C)=O)[C@@H]1C` [RIFAMYCIN] stands 3.8 µM. For the molecule `C[C@H](CCC(=O)NCCS(=O)(=O)O)[C@H]1CC[C@H]2[C@@H]3CC[C@@H]4C[C@H](O)CC[C@]4(C)[C@H]3C[C@H](O)[C@]12C` [TAURODEOXYCHOLIC ACID], the Activity result at Bile salt export pump [1] is “substrate [+]”.

B1: Bile salt export pump (Rattus norvegicus) (protein)
chain: MSDSVILRSVKKFGEENHAFESDGSHNNDKKSRLQDKMKEGDIRVGFFELFRFSSSKDIWLMLMGGVCALLHGMAQPGILIIFGIMTDIFIKYDIERQELEIPGKACVNNTIVWINSSFHQNMTNGTVCGLVDIESEMIKFSGIYAGVGMTVLILGYFQIRLWVITGARQIRRMRKIYFRRIMRMEIGWFDCTSVGELNSRFADDIEKINDAIADQLAHFLQRMSTAMCGLLLGFYRGWKLTLVILAVSPLIGIGAAVIGLSIAKFTELELKAYAKAGSIADEVLSSIRTVAAFGGENKEVERYEKNLVFAQRWGIWKGMVMGFFTGYMWCLIFFCYALAFWYGSTLVLDEEEYTPGTLVQIFLCVILAAMNIGHASSCLEIFSTGCSAATNIFQTIDRQPVIDCMSGDGYKLDRIKGEIEFHNVTFHYPSRPDVKILDNLSMVIKPGETTALVGSSGAGKSTALQLIQRFYDPCEGMVTLDGHDIRSLNIRWLRDQIGIVEQEPVLFSTTIAENIRFGREDATMEDIVQAAKDANAYNFIMALPQQFDTLVGEGGGQMSGGQKQRVAIARALIRNPKILLLDMATSALDNESEARVQEALNKIQHGHTIISVAHRLSTVRAADVIIGFEHGVAVERGTHEELLERKGVYFMLVTLQSQGDNAHKETSIMGKDATEGGTLERTFSRGSYRDSLRASIRQRSKSQLSLLTHDPPLAVADHKSSYKDSKDNDVLVEEVEPAPVRRILKYNIPEWHYILVGSLSAAINGAVTPIYSLLFSQLLGTFSLLDKEQQRSEIHSMCLFFVILGCVSIFTQFLQGYTFAKSGELLTKRLRKFGFKAMLGQDIGWFDDLRNNPGVLTTRLATDASQVQGATGSQVGMMVNSFTNIIAALLIAFFFSWKLSLIITIFFPFLALSGAVQTKMLTGFASQDKQALEKAGQITSEALSNIRTVAGIGVEGRFIKAFEVELQTSYKTAVRKANIYGLCFAFSQGIAFLANSAAYRYGGYLIAYEGLGFSHVFRVVSSVALSATAVGRTFSYTPSYAKAKISAARFFQLLDRKPPINVYSEAGEKWDNFQGKIDFIDCKFTYPSRPDIQVLNGLSVSVNPGQTLAFVGSSGCGKSTSIQLLERFYDPDQGTVMIDGHDSKKVNIQFLRSNIGIVSQEPVLFDCSIMDNIKYGDNTKEISVERAIAAAKQAQLHDFVMSLPEKYETNVGIQGSQLSRGEKQRIAIARAIVRDPKILLLDEATSALDTESEKTVQTALDKAREGRTCIVIAHRLSTIQNSDIIAVVSQGVVIEKGTHEKLMAQKGAYYKLVITGAPIS
B1: the Km in data set [4] is 4.1 µM; in data set [5], 2.2 µM.
